According to publication PMC11649909 (Nature Communications, 2024):
Residue numbers refer to the chain shown, from its start.

Experiments:
Assay in all cases: SPR
Assay type in all cases: binding
[1] = target: T1, ADIPOR2 R335A (Homo sapiens, UniProt Q86V24, R335A)
T1 sequence (Q86V24 1-386 R335A): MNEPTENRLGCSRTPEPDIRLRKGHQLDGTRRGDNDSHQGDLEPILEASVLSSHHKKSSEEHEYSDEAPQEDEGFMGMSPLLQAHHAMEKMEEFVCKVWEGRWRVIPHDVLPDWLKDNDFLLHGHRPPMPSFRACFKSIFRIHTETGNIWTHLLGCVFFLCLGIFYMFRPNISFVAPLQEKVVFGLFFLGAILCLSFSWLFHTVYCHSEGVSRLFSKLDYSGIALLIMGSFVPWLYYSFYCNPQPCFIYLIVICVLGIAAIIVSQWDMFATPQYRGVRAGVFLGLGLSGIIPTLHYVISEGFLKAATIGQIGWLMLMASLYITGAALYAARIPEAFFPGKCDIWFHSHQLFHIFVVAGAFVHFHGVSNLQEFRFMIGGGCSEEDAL

[2] = target: T2, ADIPOR2 (adiponectin receptor 2) (Homo sapiens, UniProt Q86V24)
T2 sequence (Q86V24 1-386): T1 sequence (Q86V24 1-386 R335A) with A335R

[3] = target: T3, ADIPOR2 R331A (Homo sapiens, UniProt Q86V24, R331A)
T3 sequence (Q86V24 1-386 R331A): T1 sequence (Q86V24 1-386 R335A) with R331A, A335R

Kd [1]: 50.1 µM
Kd [2]: 1.99 µM
Kd [3]: 9.92 µM
SMILES: COc1cc(C(=O)OCCCCNC(=N)N)cc(OC)c1O [SCM-198]
